Read-outs that look alike come from different tables or passages of the source. One block for each compound: values may come before it.
Legend:
Type in all cases: physicochemical
[1] = Stability following exposure to gamma radiation, RPLC purity (Example 30)
From the text: The APIs were mixed with the complexable polymers at a ratio of 1:1, 1:4 or 1:10. The instantaneous precipitation was separated from reaction media (ammonium bicarbonate in water) and dried via lyophilization. The dried powder or the dried powder suspended in Benzyl Benzoate were loaded either in glass vial or plastic syringes (Intervene) and packed in aluminum pouches. These samples were exposed to gamma radiation (12.5 kGy-17.5 kGy) for more than 8 hrs at room temperature with radiation indicator sticker (Sterigenics, Corona, Calif.). These gamma irradiated samples were then analyzed for purity using reverse phase liquid chromatography (RPLC) in reference to non-gamma irradiated samples.

[2] = In vitro dissolution of decitabine and azacytidine from amine functionalized copolymer complex (Example 12); details: complex with amine functionalized copolymer (Example 2H); PBS pH 7.4, 37° C.; FIG. 7
Description: 1.00 g of decitabine or azacytidine powder was placed in a 150 mL wide-mouth glass jar. 100 mL of 50 mM NH4HCO3 solution were added, and the mixture was stirred at 400 rpm for 30 min at room temperature (until it became a visibly clear solution).
100 mL of a 10 mg/mL solution of functionalized complexation polymer were then prepared by stirring 1.00 g of polymer in 100 mL of MilliQ water at 400 rpm (until it became a clear solution).
(§1) The decitabine or azacytidine solution was combined with the complexation polymer solution at specific ratios as set forth below and monitored for precipitation. The combined materials were stirred for 30 min and then centrifuged in 50 mL Falcon™ tubes. The supernatant solution was removed for HPLC analysis to determine the quantity of free pharmaceutically active agent (not complexed). The resultant precipitate was resuspended in 50-100 mL of 50 mM NH4HCO3 solution and lyophilized according to the method described in Example 3.
Lyophilized complex powder was suspended in 1 mL ammonium bicarbonate (50 mM).
For dissolution or in vitro release testing, PBS (Phosphate buffered saline) pH˜7.4 was used as the medium, and the complexed powder was dispersed into the dissolution medium. […] The amount of decitabine or azacytidine in solution at each time point was determined by HPLC.

[3] = Attempted complexation of risperidone with carboxylate-functionalized 50:50 copolymer (Example 10); details: reaction mixture at pH ~5
Description: Dissolution experiments were conducted as set forth below to determine the in vitro release from a mixture of risperidone and a carboxylate-functionalized 50:50 copolymer prepared as described in Example 2E. […] This observation is mainly due to the limited solubilities of risperidone and the copolymer in the reaction mixture at pH˜5.
1.00 g of a risperidone powder was placed in a 150 mL wide-mouth glass jar. 100 mL of 50 mM NH4COOCH3 solution were added, and the mixture was stirred at 400 rpm for 30 min at room temperature (until it became a visibly clear solution).
100 mL of a 10 mg/mL solution of functionalized polymer were then prepared by stirring 1.00 g of polymer in 100 mL of MilliQ water at 400 rpm (until it became a clear solution).
as §1, with “pharmaceutically active agent” for “decitabine or azacytidine”, “the” for “the complexation”, “precipitated).” for “complexed).”, “NH4COOCH3” for “NH4HCO3”

stability after 15 kGy gamma irradiation, non-complexed API ([1]; RPLC, relative to the complexed APIs, with a corresponding reduction in potency): degraded faster
Compound: CCCCCCCCCCCCCCCC(=O)N[C@@H](CCC(=O)NCCCC[C@H](NC(=O)[C@H](C)NC(=O)[C@H](C)NC(=O)[C@H](CCC(N)=O)NC(=O)CNC(=O)[C@H](CCC(=O)O)NC(=O)[C@H](CC(C)C)NC(=O)[C@H](Cc1ccc(O)cc1)NC(=O)[C@H](CO)NC(=O)[C@H](CO)NC(=O)[C@@H](NC(=O)[C@H](CC(=O)O)NC(=O)[C@H](CO)NC(=O)[C@@H](NC(=O)[C@H](Cc1ccccc1)NC(=O)[C@@H](NC(=O)CNC(=O)[C@H](CCC(=O)O)NC(=O)[C@H](C)NC(=O)[C@@H](N)Cc1cnc[nH]1)[C@@H](C)O)[C@@H](C)O)C(C)C)C(=O)N[C@@H](CCC(=O)O)C(=O)N[C@@H](Cc1ccccc1)C(=O)N[C@H](C(=O)N[C@@H](C)C(=O)N[C@@H](Cc1c[nH]c2ccccc12)C(=O)N[C@@H](CC(C)C)C(=O)N[C@H](C(=O)N[C@@H](CCCNC(=N)N)C(=O)NCC(=O)N[C@@H](CCCNC(=N)N)C(=O)NCC(=O)O)C(C)C)[C@@H](C)CC)C(=O)O [Liraglutide]

Compound: Nc1ncn([C@@H]2O[C@H](CO)[C@@H](O)[C@H]2O)c(=O)n1 [azacytidine]
stability under the tested dissolution conditions [2]: significantly degraded

Compound: Cc1nc2n(c(=O)c1CCN1CCC(c3noc4cc(F)ccc34)CC1)CCCC2 [risperidone]
complexation outcome with carboxylate-functionalized 50:50 copolymer (Example 2E) [3]: precipitated separately

Compound: HGH: Human Growth Hormone (Biosolutions)
stability after 15 kGy gamma irradiation, non-complexed API [1]: degraded faster

From patent publication US10758623B2, “Pharmaceutically active agent complexes, polymer complexes, and compositions and methods involving the same” (Durect Corporation, priority 2013, dated 2020)
